In patent US20180071317A1, “USE OF AGENTS THAT ALTER THE PERITUMORAL ENVIRONMENT FOR THE TREATMENT OF CANCER” (SERVICIO ANDALUZ DE SALUD, priority 2011, published 2018):

Assays:
[1] = tested on: co-cultures of tumor cells-immune/inflammatory cells (leukocytes); experiment: Inhibition/survival in co-cultures of primary human tumor cells and leukocytes; type: cell-based; conditions: SP + antagonist
Method: To check that the interaction between the human primary tumor cells with human immune/inflammatory (polymorphonuclear and mononuclear leukocytes) cells, promotes the survival of both types of cells, cultures were carried out with sets of immune/inflammatory cells (mono and polymorphonuclear leukocytes) with tumor cells obtained directly from human primary tumors of patients.
The leukocytes were obtained from centrifugation of blood from the same patient. The leukocytes were cultured in fresh plasma from the same patient, in order to build a model similar to human physiology.

[2] = tested on: macrophages in co-culture with cells isolated from primary human tumors; experiment: Marker expression (IHC) in macrophages co-cultured with primary human tumor cells (colon, breast, ovarian, lung carcinoma, melanoma); type: cell-based; conditions: SP + antagonist;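 also: macrophages came from pleural or peritoneal washings of the patient who also supplied the tumor cells, and both were co-cultured on fresh blood plasma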

Row | SMILES | survival/proliferation in co-cultures of tumor cells-leukocytes (in words) [1] | expression of markers in macrophages co-cultured with primary tumor cells (in words) [2]
1 | COc1ccccc1CN[C@H]1C2CCN(CC2)[C@H]1C(c1ccccc1)c1ccccc1 [CP-96345] | same results | same results
2 | COc1ccccc1CN[C@H]1CCCN[C@H]1c1ccccc1 [CP-100263] | same results | same results
3 | Ic1ccccc1CNC1C2CCN(CC2)C1C(c1ccccc1)c1ccccc1.O=C(O)C(=O)O [L-703,606, cis-2-(Diphenylmethyl)-N-[(2-iodophenyl)methyl]-1-azabicyclo [2.2.2]octan-3-amine oxalate salt] | same results | same results
4 | CC(=O)N[C@@H](Cc1c[nH]c2ccccc12)C(=O)OCc1cc(C(F)(F)F)cc(C(F)(F)F)c1 [L-732,138, N-Acetyl-L-tryptophan 3,5-bis (trifluoromethyl)benzyl ester] | same results | same results
5 | Cl.FC(F)(F)c1cc(CO[C@H]2CCCN[C@H]2c2ccccc2)cc(C(F)(F)F)c1 [L-733,060, (2S,3S)-3-[(3,5-bis (Trifluoromethyl)phenyl)methoxy]-2-phenylpiperidine hydrochloride] | same results | same results
6 | C[C@@H](O[C@H]1OCCN(Cc2n[nH]nc2CN(C)C)[C@H]1c1ccc(F)cc1)c1cc(C(F)(F)F)cc(C(F)(F)F)c1.Cl [L-760735] | same results | same results
7 | C#C[C@]1(O)CC[C@H]2[C@@H]3CCC4=Cc5nc6nc7ccccc7n6cc5C[C@]4(C)[C@H]3CC[C@@]21C [WIN 62,577] | same results | same results
8 | C#C[C@]1(O)CC[C@H]2[C@@H]3CC[C@H]4Cc5nc6nc7ccccc7n6cc5C[C@]4(C)[C@H]3CC[C@@]21C [WIN 51708] | same results | same results
